# Measured values: patent US9896441B2 (Lycera Corporation, priority 2014, dated 2018)
# Legend:
# RORγ-LBD = molecular target: T1, RORγ-LBD (Homo sapiens, UniProt P51449); test: RORγ-Ligand Binding Domain (LBD) TR-FRET Assay; assay type: biochemical; settings: for TR-FRET Assay Max Response: maximum response;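 for TR-FRET Assay Max Response: 665/615 nm signal ratio set to 100 without ursolic acid or test compound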
# T1 construct: made in house; host or cells: SF9 cells (baculovirus); used as diluted lysate
# T1 sequence (P51449 269-508 limits assumed): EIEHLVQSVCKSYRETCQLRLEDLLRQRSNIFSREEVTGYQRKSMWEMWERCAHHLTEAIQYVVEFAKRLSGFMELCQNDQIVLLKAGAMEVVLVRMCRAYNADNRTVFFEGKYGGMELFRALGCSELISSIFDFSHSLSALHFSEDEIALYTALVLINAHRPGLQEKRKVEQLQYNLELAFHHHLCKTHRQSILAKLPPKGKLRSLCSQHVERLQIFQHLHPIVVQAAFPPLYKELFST
# In short: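 This TR-FRET coactivator assay pairs baculovirus-expressed His-RORγ-LBD (~3 nM final) with biotin-SRC1 LXXLL peptide at 200 nM final in pH 7.0 Tris/KCl/EDTA/DTT/BSA buffer.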
# Gal4-RORγ-LBD = molecular target: T2, Gal4-RORγ-LBD (Homo sapiens, UniProt P51449); test: Gal4-RORγ Luciferase Reporter Assay in HEK-293T Cells; assay type: cell-based; settings: HEK-293 cells, luciferase reporter; for Gal4-RORγ Assay Max Response: maximum response
# T2 construct: expressed in transfected cells
# T2 sequence (P51449 269-508 limits assumed): T1 sequence (P51449 269-508 limits assumed)
# In short: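 HEK-293 cells were co-transfected with Gal4-RORγ-LBD and a Gal4-luciferase reporter, then exposed overnight at 37 °C to compounds with […] ursolic acid present (0.2% DMSO). Luminescence was read with One-Glo after 10 min at RT, untreated signal was set as 100, and Max Response was taken as the upper plateau of a 4-parameter logistic fit.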
EC50 (RORγ-LBD; RORγ-LBD TR-FRET),EC50 (Gal4-RORγ-LBD; with ursolic acid),EC50 (RORγ-LBD; RORγ-LBD TR-FRET assay),EC50 (Gal4-RORγ-LBD; in presence of ursolic acid),Gal4-RORγ Assay Max Response (Gal4-RORγ-LBD; in presence of ursolic acid),Compound,TR-FRET Assay Max Response (RORγ-LBD; RORγ-LBD TR-FRET assay)
< 500 nM,< 500 nM,–,–,–,"O=C(O)CC[C@H]1CN(S(=O)(=O)c2cccc(OC(F)F)c2)c2cc(/C=C/c3c(Cl)cccc3C(F)(F)F)ccc2O1 [Example 89DQ, (S,E)-3-(6-(2-chloro-6-(trifluoromethyl)styryl)-4-((3-(difluoromethoxy)phenyl)sulfonyl)-3,4-dihydro-2H-benzo[b][1,4]oxazin-2-yl)propanoic acid]",–
< 500 nM,< 500 nM,–,–,–,"C/C(=C\c1cc(F)c2c(c1)N(S(=O)(=O)c1cccc(C(F)(F)F)c1)C[C@H](CCC(=O)O)O2)c1c(F)cccc1Cl [Example 50, (S,E)-3-(6-(2-(2-Chloro-6-fluorophenyl)prop-1-en-1-yl)-8-fluoro-4-((3-(trifluoromethyl)phenyl)sulfonyl)-3,4-dihydro-2H-benzo[b][1,4]oxazin-2-yl)propanoic acid]",–
< 500 nM,500 to 5000 nM,–,–,–,"COC(=O)CC[C@H]1CN(S(=O)(=O)c2cc(F)cc(C(F)(F)F)c2)c2cc(/C=C(\C)c3c(F)cccc3Cl)ccc2O1 [Example 86AR, (S,E)-methyl 3-(6-(2-(2-chloro-6-fluorophenyl)prop-1-en-1-yl)-4-((3-fluoro-5-(trifluoromethyl)-phenyl)sulfonyl)-3,4-dihydro-2H-benzo[b][1,4]oxazin-2-yl)propanoate]",–
–,–,< 500 nM,> 10000 nM,–,"CCOC(=O)C1CCN(CC[C@H]2CN(S(=O)(=O)c3cccc(C(F)(F)F)c3)c3cc(/C=C(\C)c4c(F)cccc4Cl)ccc3O2)CC1 [Example 119F, ethyl (S,E)-1-(2-(6-(2-(2-chloro-6-fluorophenyl)prop-1-en-1-yl)-4-((3-(trifluoromethyl)phenyl)sulfonyl)-3,4-dihydro-2H-benzo[b][1,4]oxazin-2-yl)ethyl)piperidine-4-carboxylate]",*** (a value in the range of greater than 150 to 200)
< 500 nM,500 to 5000 nM,–,–,–,"N#Cc1ccccc1/C=C/c1ccc2c(c1)N(S(=O)(=O)c1cccc(OC(F)F)c1)C[C@H](CCC(=O)O)O2 [Example 89AQ, (S,E)-3-(6-(2-cyanostyryl)-4-((3-(difluoromethoxy)phenyl)sulfonyl)-3,4-dihydro-2H-benzo[b][1,4]oxazin-2-yl)propanoic acid]",–
< 500 nM,500 to 5000 nM,–,–,–,"O=C(O)CC[C@H]1CN(S(=O)(=O)c2cc(C(F)(F)F)cnc2OCCO)c2cc(/C=C3/CCCOC3)ccc2O1 [Example 95Y, (S,Z)-3-(6-((dihydro-2H-pyran-3(4H)-ylidene)methyl)-4-((2-(2-hydroxyethoxy)-5-(trifluoromethyl)pyridin-3-yl)sulfonyl)-3,4-dihydro-2H-benzo[b][1,4]oxazin-2-yl)propanoic acid]",–
–,–,< 500 nM,500 to 5000 nM,* (a value in the range of 30 to 90),"COc1cc(S(=O)(=O)N2c3cc(/C=C/c4c(F)cccc4Cl)ccc3C[C@H](O)[C@H]2C)ccc1F (racemic) [Example 174, rac-(2R,3S)-7-((E)-2-Chloro-6-fluorostyryl)-1-((4-fluoro-3-methoxyphenyl)sulfonyl)-2-methyl-1,2,3,4-tetrahydroquinolin-3-ol]",** (a value in the range of greater than 90 to 150)
–,–,< 500 nM,< 500 nM,* (a value in the range of 30 to 90),"C/C(=C\c1ccc2c(c1)N(S(=O)(=O)c1cccc(C(F)(F)F)c1)C[C@H](CCN1CCS(=O)(=O)CC1)O2)c1c(F)cccc1Cl [Example 119G, (S,E)-4-(2-(6-(2-(2-chloro-6-fluorophenyl)prop-1-en-1-yl)-4-((3-(trifluoromethyl)phenyl)sulfonyl)-3,4-dihydro-2H-benzo[b][1,4]oxazin-2-yl)ethyl)thiomorpholine 1,1-dioxide]",*** (a value in the range of greater than 150 to 200)
< 500 nM,500 to 5000 nM,–,–,–,"COC(=O)CC[C@H]1CN(S(=O)(=O)c2cn(C(F)F)nc2C)c2cc(/C=C(\C)c3c(F)cccc3Cl)ccc2O1 [Example 86X, (S)-methyl 3-(6-(2-(2-chloro-6-fluorophenyl)prop-1-en-1-yl)-4-((1-(difluoromethyl)-3-methyl-1H-pyrazol-4-yl)sulfonyl)-3,4-dihydro-2H-benzo[b][1,4]oxazin-2-yl)propanoate]",–
< 500 nM,500 to 5000 nM,–,–,–,"CCOc1nn(CC)cc1S(=O)(=O)N1C[C@H](CCC(=O)O)Oc2ccc(/C=C(\C)c3c(F)cccc3Cl)cc21 [Example 86I, (S,E)-3-(6-(2-(2-chloro-6-fluorophenyl)prop-1-en-1-yl)-4-((3-ethoxy-1-ethyl-1H-pyrazol-4-yl)sulfonyl)-3,4-dihydro-2H-benzo[b][1,4]oxazin-2-yl)propanoic acid]",–
< 500 nM,500 to 5000 nM,–,–,–,"C/C(=C\c1cc2c(cc1F)O[C@@H](CCC(=O)O)CN2S(=O)(=O)c1cccc(OC(F)F)c1)c1c(F)cccc1Cl [Example 44, (S,E)-3-(6-(2-(2-Chloro-6-fluorophenyl)prop-1-en-1-yl)-4-((3-(difluoromethoxy)phenyl)sulfonyl)-7-fluoro-3,4-dihydro-2H-benzo[b][1,4]oxazin-2-yl)propanoic acid]",–
< 500 nM,< 500 nM,–,–,–,"CCOc1ncc(C(F)(F)F)cc1S(=O)(=O)N1C[C@H](CCC(=O)O)Oc2ccc(/C=C/c3c(Cl)cccc3C(F)(F)F)cc21 [Example 89DM, (S,E)-3-(6-(2-chloro-6-(trifluoromethyl)styryl)-4-((2-ethoxy-5-(trifluoromethyl)-pyridin-3-yl)sulfonyl)-3,4-dihydro-2H-benzo[b][1,4]-oxazin-2-yl)propanoic acid]",–
< 500 nM,500 to 5000 nM,–,–,–,"CCn1cc(S(=O)(=O)N2C[C@H](CCC(=O)O)Oc3ccc(/C=C/c4ncccc4Cl)cc32)c(Cl)n1 [Example 89CQ, (S,E)-3-(4-((3-chloro-1-ethyl-1H-pyrazol-4-yl)sulfonyl)-6-(2-(3-chloropyridin-2-yl)vinyl)-3,4-dihydro-2H-benzo[b][1,4]oxazin-2-yl)propanoic acid]",–
< 500 nM,< 500 nM,–,–,–,"CCOc1ncc(C(F)(F)F)cc1S(=O)(=O)N1C[C@H](CCC(=O)O)Oc2ccc(/C=C/c3c(Cl)cccc3C(F)F)cc21 [Example 89EJ, (S,E)-3-(6-(2-chloro-6-(difluoromethyl)styryl)-4-((2-ethoxy-5-(trifluoromethyl)-pyridin-3-yl)sulfonyl)-3,4-dihydro-2H-benzo[b][1,4]-oxazin-2-yl)propanoic acid]",–
–,–,< 500 nM,< 500 nM,* (a value in the range of 30 to 90),"C/C(=C\c1ccc2c(c1)N(S(=O)(=O)c1cccc(C(F)(F)F)c1)C[C@H](CCNC(=O)C(C)(C)O)O2)c1c(F)cccc1Cl [Example 115, (S,E)-N-(2-(6-(2-(2-Chloro-6-fluorophenyl)prop-1-en-1-yl)-4-((3-(trifluoromethyl)phenyl)sulfonyl)-3,4-dihydro-2H-benzo[b][1,4]oxazin-2-yl)ethyl)-2-hydroxy-2-methylpropanamide]",*** (a value in the range of greater than 150 to 200)
< 500 nM,< 500 nM,–,–,–,"CC(=O)N[C@H](C)[C@H]1CN(S(=O)(=O)c2cccc(C(F)(F)F)c2)c2cc(/C=C(\C)c3c(F)cccc3Cl)ccc2O1 [Example 103, N—((R)-1-((R)-6-((E)-2-(2-Chloro-6-fluorophenyl)prop-1-en-1-yl)-4-((3-(trifluoromethyl)phenyl)sulfonyl)-3,4-dihydro-2H-benzo[b][1,4]oxazin-2-yl)ethyl)acetamide]",–
< 500 nM,500 to 5000 nM,–,–,–,"CCn1cc(S(=O)(=O)N2C[C@H]([C@@H](C)O)Oc3ccc(/C=C(\C)c4c(F)cccc4Cl)cc32)c(Cl)n1 [Example 99, (R)-1-((R)-4-((3-Chloro-1-ethyl-1H-pyrazol-4-yl)sulfonyl)-6-((E)-2-(2-chloro-6-fluorophenyl)prop-1-en-1-yl)-3,4-dihydro-2H-benzo[b][1,4]oxazin-2-yl)ethan-1-ol]",–

Compound,EC50 (RORγ-LBD; RORγ-LBD TR-FRET),EC50 (Gal4-RORγ-LBD; with ursolic acid),EC50 (RORγ-LBD; RORγ-LBD TR-FRET assay),EC50 (Gal4-RORγ-LBD; in presence of ursolic acid),Gal4-RORγ Assay Max Response (Gal4-RORγ-LBD; in presence of ursolic acid),TR-FRET Assay Max Response (RORγ-LBD; RORγ-LBD TR-FRET assay)
"COc1cc(S(=O)(=O)N2c3cc(/C=C/c4c(F)cccc4Cl)ccc3O[C@@H](CO)[C@H]2C)ccc1F [Example 136, ((2R,3R)-6-((E)-2-Chloro-6-fluorostyryl)-4-((4-fluoro-3-methoxyphenyl)sulfonyl)-3-methyl-3,4-dihydro-2H-benzo[b][1,4]oxazin-2-yl)methanol]",–,–,< 500 nM,< 500 nM,** (a value in the range of greater than 90 to 150),**** (a value greater than 200)
"COC(=O)CCC1CC(S(=O)(=O)c2ccc(F)c(OC)c2)c2cc(OCc3c(F)cccc3Cl)ccc2O1 (stereo not shown) [Example 178, Methyl 3-(6-((2-chloro-6-fluorobenzyl)oxy)-4-((4-fluoro-3-methoxyphenyl)sulfonyl)chroman-2-yl)propanoate]",–,–,< 500 nM,500 to 5000 nM,** (a value in the range of greater than 90 to 150),** (a value in the range of greater than 90 to 150)
